Laboratory results reported in ChEMBL document CHEMBL1909046, “DrugMatrix in vitro pharmacology data”.

Target: Substance-P receptor (Homo sapiens, UniProt P25103); also: in other assays of this panel Not Active means under 50% inhibition at 10 µM
Assay: not given
Format: cell membranes, CHO, Membrane
Conditions: cho

Chain of Substance-P receptor (P25103 whole entry): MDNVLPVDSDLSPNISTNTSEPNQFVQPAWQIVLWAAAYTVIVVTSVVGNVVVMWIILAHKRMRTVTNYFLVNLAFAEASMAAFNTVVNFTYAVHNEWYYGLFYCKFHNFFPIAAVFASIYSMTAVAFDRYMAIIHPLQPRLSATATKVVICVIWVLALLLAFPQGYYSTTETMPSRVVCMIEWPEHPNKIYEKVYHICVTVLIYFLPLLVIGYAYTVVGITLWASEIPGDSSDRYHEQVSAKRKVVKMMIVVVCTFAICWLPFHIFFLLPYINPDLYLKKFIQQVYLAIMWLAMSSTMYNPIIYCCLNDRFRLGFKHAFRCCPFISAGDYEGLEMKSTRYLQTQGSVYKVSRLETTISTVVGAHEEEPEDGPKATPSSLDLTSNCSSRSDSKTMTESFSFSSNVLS

SMILES	IC50
CC(C)(C)NCC(O)c1cc(O)cc(O)c1 (stereo unspecified) [TERBUTALINE]	Not Active
CC(CCc1ccccc1)NCC(O)c1ccc(O)c(C(N)=O)c1 (stereo unspecified) [LABETALOL]	Not Active

Same assay, conditions: read-out: IC50

SMILES	IC50
Clc1ccccc1C(c1ccccc1)(c1ccccc1)n1ccnc1 [CLOTRIMAZOLE]	16 µM

Same assay, conditions: read-out: Ki

SMILES	Ki
Clc1ccccc1C(c1ccccc1)(c1ccccc1)n1ccnc1 [CLOTRIMAZOLE]	8.75 µM

Target: Mitogen-activated protein kinase 14 (Homo sapiens, UniProt Q16539);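 also: inhibition of p38alpha enzyme activity in a biochemical kinase assay, with myelin basic protein serving as substrate; in other assays of this panel Not Active means under 50% inhibition at 10 µM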
Sequence (Q16539 whole entry): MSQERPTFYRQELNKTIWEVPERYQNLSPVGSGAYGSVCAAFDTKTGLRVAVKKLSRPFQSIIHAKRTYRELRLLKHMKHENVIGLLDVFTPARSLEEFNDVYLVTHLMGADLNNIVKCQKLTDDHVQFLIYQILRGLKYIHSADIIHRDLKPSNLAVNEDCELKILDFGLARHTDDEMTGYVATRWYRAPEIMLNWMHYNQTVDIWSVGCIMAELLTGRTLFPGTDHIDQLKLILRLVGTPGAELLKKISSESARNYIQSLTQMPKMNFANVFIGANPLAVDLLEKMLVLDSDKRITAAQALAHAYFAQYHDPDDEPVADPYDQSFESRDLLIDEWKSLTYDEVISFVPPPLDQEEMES
Assay: not given
Design: species or system Escherichia coli
Conditions: not given

SMILES	IC50
Clc1ccccc1C(c1ccccc1)(c1ccccc1)n1ccnc1 [CLOTRIMAZOLE]	Not Active
CC(C)(C)NCC(O)c1cc(O)cc(O)c1 (stereo unspecified) [TERBUTALINE]	Not Active
CC(CCc1ccccc1)NCC(O)c1ccc(O)c(C(N)=O)c1 (stereo unspecified) [LABETALOL]	Not Active
COc1ccc(CCN2CCC(Nc3nc4ccccc4n3Cc3ccc(F)cc3)CC2)cc1 [ASTEMIZOLE]	Not Active

Target: T1, Cholecystokinin receptor type A (Homo sapiens, UniProt P32238); also: in other assays of this panel Not Active means under 50% inhibition at 10 µM
T1 sequence (P32238 whole entry): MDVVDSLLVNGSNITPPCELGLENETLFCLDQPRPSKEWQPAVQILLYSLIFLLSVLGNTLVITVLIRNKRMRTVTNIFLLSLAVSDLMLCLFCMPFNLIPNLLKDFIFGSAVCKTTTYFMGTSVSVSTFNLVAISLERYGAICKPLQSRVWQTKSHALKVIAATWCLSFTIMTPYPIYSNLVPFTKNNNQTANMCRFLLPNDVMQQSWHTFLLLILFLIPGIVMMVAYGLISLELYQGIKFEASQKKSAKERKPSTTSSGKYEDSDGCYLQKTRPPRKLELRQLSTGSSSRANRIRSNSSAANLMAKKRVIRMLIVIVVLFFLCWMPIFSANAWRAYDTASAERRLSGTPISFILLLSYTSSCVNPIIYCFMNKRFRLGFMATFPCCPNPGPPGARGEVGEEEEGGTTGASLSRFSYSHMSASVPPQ
Assay: not given
Format: cell membranes, Membrane
Conditions: 1321-n1

SMILES	IC50
Clc1ccccc1C(c1ccccc1)(c1ccccc1)n1ccnc1 [CLOTRIMAZOLE]	Not Active
CC(C)(C)NCC(O)c1cc(O)cc(O)c1 (stereo unspecified) [TERBUTALINE]	Not Active
CC(CCc1ccccc1)NCC(O)c1ccc(O)c(C(N)=O)c1 (stereo unspecified) [LABETALOL]	Not Active
COc1ccc(CCN2CCC(Nc3nc4ccccc4n3Cc3ccc(F)cc3)CC2)cc1 [ASTEMIZOLE]	Not Active

Target: Vascular endothelial growth factor receptor 1 (Homo sapiens, UniProt P17948); also: in other assays of this panel Not Active means under 50% inhibition at 10 µM
Sequence (P17948 whole entry): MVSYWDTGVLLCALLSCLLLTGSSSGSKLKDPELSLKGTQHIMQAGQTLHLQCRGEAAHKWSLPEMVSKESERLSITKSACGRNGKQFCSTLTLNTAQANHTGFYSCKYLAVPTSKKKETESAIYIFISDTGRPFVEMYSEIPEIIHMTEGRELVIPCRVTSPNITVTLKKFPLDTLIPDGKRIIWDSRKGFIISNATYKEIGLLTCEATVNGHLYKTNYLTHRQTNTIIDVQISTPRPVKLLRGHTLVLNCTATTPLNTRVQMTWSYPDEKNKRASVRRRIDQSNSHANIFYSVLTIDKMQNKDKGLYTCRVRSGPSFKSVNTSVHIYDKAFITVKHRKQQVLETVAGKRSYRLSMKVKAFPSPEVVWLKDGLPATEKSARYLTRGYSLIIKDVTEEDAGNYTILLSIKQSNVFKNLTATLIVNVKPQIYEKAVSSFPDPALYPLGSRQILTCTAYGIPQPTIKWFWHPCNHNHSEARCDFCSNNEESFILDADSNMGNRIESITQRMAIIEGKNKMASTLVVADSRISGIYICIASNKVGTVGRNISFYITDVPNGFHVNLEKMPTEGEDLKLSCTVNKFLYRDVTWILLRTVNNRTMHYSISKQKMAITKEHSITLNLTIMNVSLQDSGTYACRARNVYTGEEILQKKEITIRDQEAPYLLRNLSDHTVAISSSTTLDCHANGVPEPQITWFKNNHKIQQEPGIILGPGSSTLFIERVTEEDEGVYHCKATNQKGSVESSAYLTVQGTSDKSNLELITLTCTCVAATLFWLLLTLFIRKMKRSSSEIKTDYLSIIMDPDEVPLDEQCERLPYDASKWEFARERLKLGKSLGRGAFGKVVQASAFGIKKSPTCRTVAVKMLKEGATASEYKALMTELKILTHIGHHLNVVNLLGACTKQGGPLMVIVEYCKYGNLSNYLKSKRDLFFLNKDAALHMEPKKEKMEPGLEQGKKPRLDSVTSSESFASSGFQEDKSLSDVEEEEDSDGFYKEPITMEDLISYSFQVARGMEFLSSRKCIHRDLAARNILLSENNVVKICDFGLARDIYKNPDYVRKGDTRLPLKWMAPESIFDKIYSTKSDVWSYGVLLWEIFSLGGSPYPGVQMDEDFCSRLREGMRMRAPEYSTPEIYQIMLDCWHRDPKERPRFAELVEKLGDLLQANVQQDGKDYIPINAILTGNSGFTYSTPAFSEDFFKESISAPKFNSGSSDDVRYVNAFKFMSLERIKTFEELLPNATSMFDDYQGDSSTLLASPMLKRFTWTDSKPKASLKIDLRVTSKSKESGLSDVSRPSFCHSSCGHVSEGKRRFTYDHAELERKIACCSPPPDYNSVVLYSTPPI
Assay: not given
Format: cell-based
Conditions: huvec

SMILES	IC50
Clc1ccccc1C(c1ccccc1)(c1ccccc1)n1ccnc1 [CLOTRIMAZOLE]	Not Active
CC(C)(C)NCC(O)c1cc(O)cc(O)c1 (stereo unspecified) [TERBUTALINE]	Not Active
CC(CCc1ccccc1)NCC(O)c1ccc(O)c(C(N)=O)c1 (stereo unspecified) [LABETALOL]	Not Active
COc1ccc(CCN2CCC(Nc3nc4ccccc4n3Cc3ccc(F)cc3)CC2)cc1 [ASTEMIZOLE]	Not Active

Target: 5-hydroxytryptamine receptor 2B (Homo sapiens, UniProt P41595); also: in other assays of this panel Not Active means under 50% inhibition at 10 µM
Sequence (P41595 whole entry): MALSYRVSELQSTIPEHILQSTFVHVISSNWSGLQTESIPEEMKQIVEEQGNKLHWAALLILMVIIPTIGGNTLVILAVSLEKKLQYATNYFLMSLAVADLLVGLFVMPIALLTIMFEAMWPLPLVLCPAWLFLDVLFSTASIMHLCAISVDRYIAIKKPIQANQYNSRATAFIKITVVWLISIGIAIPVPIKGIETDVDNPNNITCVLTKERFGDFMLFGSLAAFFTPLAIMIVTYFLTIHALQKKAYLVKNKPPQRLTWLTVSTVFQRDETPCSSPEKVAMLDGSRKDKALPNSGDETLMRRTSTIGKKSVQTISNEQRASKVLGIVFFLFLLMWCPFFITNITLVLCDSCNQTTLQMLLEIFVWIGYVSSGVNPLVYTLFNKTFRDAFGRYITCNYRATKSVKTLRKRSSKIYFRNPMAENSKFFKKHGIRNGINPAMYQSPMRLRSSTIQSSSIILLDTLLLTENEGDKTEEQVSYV
Assay: not given
Format: cell membranes, CHO-K1, Membrane
Conditions: cho-k1

SMILES	IC50
CC(C)(C)NCC(O)c1cc(O)cc(O)c1 (stereo unspecified) [TERBUTALINE]	Not Active

Same assay, conditions: read-out: IC50

SMILES	IC50
Clc1ccccc1C(c1ccccc1)(c1ccccc1)n1ccnc1 [CLOTRIMAZOLE]	11.6 µM
CC(CCc1ccccc1)NCC(O)c1ccc(O)c(C(N)=O)c1 (stereo unspecified) [LABETALOL]	3.04 µM

Same assay, conditions: read-out: Ki

SMILES	Ki
Clc1ccccc1C(c1ccccc1)(c1ccccc1)n1ccnc1 [CLOTRIMAZOLE]	7.38 µM
CC(CCc1ccccc1)NCC(O)c1ccc(O)c(C(N)=O)c1 (stereo unspecified) [LABETALOL]	1.93 µM

System: not listed separately
Assay: DRUGMATRIX: Atrial Natriuretic Factor (ANF) radioligand binding (ligand: [125I] ANF (rat))
Format: cell membranes, Cavia porcellus, Dunkin-Hartley, Adrenal gland, Membrane
Conditions: Not Active = under 50% inhibition at 10 µM

SMILES	IC50	Ki
CC(C)(C)NCC(O)c1cc(O)cc(O)c1 (stereo unspecified) [TERBUTALINE]	Not Active	Not Active
CC(CCc1ccccc1)NCC(O)c1ccc(O)c(C(N)=O)c1 (stereo unspecified) [LABETALOL]	Not Active	Not Active

Target: D(3) dopamine receptor (Homo sapiens, UniProt P35462)
Sequence (P35462 whole entry): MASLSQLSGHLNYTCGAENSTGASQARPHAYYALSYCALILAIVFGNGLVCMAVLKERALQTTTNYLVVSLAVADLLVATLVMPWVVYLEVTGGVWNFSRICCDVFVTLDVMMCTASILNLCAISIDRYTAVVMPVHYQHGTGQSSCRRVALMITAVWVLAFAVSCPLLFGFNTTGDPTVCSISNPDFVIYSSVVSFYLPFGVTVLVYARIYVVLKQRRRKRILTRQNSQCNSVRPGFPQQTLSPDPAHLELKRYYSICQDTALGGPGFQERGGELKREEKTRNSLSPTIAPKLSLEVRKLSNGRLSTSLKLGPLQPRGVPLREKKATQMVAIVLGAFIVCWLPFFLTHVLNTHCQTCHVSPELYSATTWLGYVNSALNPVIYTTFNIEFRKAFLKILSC
Assay: DRUGMATRIX: Dopamine D3 radioligand binding (ligand: [3H] Spiperone)
Format: cell membranes, CHO, Membrane
Conditions: cho

SMILES	IC50
CC(C)(C)NCC(O)c1cc(O)cc(O)c1 (stereo unspecified) [TERBUTALINE]	Not Active
CC(CCc1ccccc1)NCC(O)c1ccc(O)c(C(N)=O)c1 (stereo unspecified) [LABETALOL]	Not Active

Same assay, conditions: read-out: IC50

SMILES	IC50
Clc1ccccc1C(c1ccccc1)(c1ccccc1)n1ccnc1 [CLOTRIMAZOLE]	2.65 µM

Same assay, conditions: read-out: Ki

SMILES	Ki
Clc1ccccc1C(c1ccccc1)(c1ccccc1)n1ccnc1 [CLOTRIMAZOLE]	0.899 µM

Target: D(1A) dopamine receptor (Homo sapiens, UniProt P21728)
Sequence (P21728 whole entry): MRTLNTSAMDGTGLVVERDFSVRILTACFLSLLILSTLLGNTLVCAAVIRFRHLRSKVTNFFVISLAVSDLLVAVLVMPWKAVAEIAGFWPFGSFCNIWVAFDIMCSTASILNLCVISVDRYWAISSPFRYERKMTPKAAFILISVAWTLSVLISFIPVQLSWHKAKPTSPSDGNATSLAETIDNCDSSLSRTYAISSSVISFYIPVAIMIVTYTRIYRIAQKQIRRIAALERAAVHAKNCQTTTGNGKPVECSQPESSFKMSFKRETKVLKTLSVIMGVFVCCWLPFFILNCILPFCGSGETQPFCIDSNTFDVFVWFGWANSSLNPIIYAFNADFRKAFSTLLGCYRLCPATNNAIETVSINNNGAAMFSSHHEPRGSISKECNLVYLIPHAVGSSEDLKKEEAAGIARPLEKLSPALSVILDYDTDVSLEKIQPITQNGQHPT
Assay: DRUGMATRIX: Dopamine D1 radioligand binding (ligand: [3H] SCH-23390)
Format: cell membranes, CHO, Membrane
Conditions: cho; Not Active = under 50% inhibition at 10 µM

SMILES	IC50
CC(C)(C)NCC(O)c1cc(O)cc(O)c1 (stereo unspecified) [TERBUTALINE]	Not Active
CC(CCc1ccccc1)NCC(O)c1ccc(O)c(C(N)=O)c1 (stereo unspecified) [LABETALOL]	Not Active

System: not listed separately
Assay: DRUGMATRIX: Calcium Channel Type L, Dihydropyridine radioligand binding (ligand: [3H] Nitrendipine)
Format: cell membranes, Rattus norvegicus, Wistar, Cerebral cortex, Membrane
Conditions: Not Active = under 50% inhibition at 10 µM

SMILES	IC50	Ki
CC(C)(C)NCC(O)c1cc(O)cc(O)c1 (stereo unspecified) [TERBUTALINE]	Not Active	Not Active
CC(CCc1ccccc1)NCC(O)c1ccc(O)c(C(N)=O)c1 (stereo unspecified) [LABETALOL]	Not Active	Not Active

Target: T2, Adenosine receptor A1 (Homo sapiens, UniProt P30542)
T2 sequence (P30542 whole entry): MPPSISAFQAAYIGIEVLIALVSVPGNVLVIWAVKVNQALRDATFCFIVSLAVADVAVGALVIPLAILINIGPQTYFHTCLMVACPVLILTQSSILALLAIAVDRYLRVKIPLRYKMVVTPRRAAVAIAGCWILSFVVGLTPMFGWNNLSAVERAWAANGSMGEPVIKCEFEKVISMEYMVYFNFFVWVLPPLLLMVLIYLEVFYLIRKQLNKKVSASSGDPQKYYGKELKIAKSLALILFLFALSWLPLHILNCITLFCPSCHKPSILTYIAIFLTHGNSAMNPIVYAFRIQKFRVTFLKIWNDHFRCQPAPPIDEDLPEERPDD
Assay: not given
Format: cell membranes, CHO, Membrane
Conditions: cho

SMILES	IC50
CC(C)(C)NCC(O)c1cc(O)cc(O)c1 (stereo unspecified) [TERBUTALINE]	Not Active
CC(CCc1ccccc1)NCC(O)c1ccc(O)c(C(N)=O)c1 (stereo unspecified) [LABETALOL]	Not Active
COc1ccc(CCN2CCC(Nc3nc4ccccc4n3Cc3ccc(F)cc3)CC2)cc1 [ASTEMIZOLE]	Not Active

Target: C-C chemokine receptor type 5 (Homo sapiens, UniProt P51681); also: in other assays of this panel Not Active means under 50% inhibition at 10 µM
Sequence (P51681 whole entry): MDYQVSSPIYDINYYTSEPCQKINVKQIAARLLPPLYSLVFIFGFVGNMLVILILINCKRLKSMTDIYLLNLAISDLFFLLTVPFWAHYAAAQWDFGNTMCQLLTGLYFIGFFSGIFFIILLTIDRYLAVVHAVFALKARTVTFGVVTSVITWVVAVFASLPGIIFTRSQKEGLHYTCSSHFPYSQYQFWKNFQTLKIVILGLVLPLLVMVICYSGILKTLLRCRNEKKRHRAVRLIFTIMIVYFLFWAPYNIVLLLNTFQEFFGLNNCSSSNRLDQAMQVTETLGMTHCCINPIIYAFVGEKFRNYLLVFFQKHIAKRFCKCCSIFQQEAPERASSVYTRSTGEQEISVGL
Assay: not given
Format: cell membranes, Membrane
Conditions: hek293

SMILES	IC50
Clc1ccccc1C(c1ccccc1)(c1ccccc1)n1ccnc1 [CLOTRIMAZOLE]	Not Active
CC(C)(C)NCC(O)c1cc(O)cc(O)c1 (stereo unspecified) [TERBUTALINE]	Not Active
CC(CCc1ccccc1)NCC(O)c1ccc(O)c(C(N)=O)c1 (stereo unspecified) [LABETALOL]	Not Active
COc1ccc(CCN2CCC(Nc3nc4ccccc4n3Cc3ccc(F)cc3)CC2)cc1 [ASTEMIZOLE]	Not Active

System: not listed separately
Assay: DRUGMATRIX: Glutamate, AMPA radioligand binding (ligand: [3H] AMPA)
Format: cell membranes, Rattus norvegicus, Wistar, Cerebral cortex, Membrane
Conditions: Not Active = under 50% inhibition at 10 µM

SMILES	IC50	Ki
CC(C)(C)NCC(O)c1cc(O)cc(O)c1 (stereo unspecified) [TERBUTALINE]	Not Active	Not Active
CC(CCc1ccccc1)NCC(O)c1ccc(O)c(C(N)=O)c1 (stereo unspecified) [LABETALOL]	Not Active	Not Active

Target: T3, Polyunsaturated fatty acid lipoxygenase ALOX15 (Oryctolagus cuniculus, UniProt P12530)
T3 sequence (P12530 whole entry): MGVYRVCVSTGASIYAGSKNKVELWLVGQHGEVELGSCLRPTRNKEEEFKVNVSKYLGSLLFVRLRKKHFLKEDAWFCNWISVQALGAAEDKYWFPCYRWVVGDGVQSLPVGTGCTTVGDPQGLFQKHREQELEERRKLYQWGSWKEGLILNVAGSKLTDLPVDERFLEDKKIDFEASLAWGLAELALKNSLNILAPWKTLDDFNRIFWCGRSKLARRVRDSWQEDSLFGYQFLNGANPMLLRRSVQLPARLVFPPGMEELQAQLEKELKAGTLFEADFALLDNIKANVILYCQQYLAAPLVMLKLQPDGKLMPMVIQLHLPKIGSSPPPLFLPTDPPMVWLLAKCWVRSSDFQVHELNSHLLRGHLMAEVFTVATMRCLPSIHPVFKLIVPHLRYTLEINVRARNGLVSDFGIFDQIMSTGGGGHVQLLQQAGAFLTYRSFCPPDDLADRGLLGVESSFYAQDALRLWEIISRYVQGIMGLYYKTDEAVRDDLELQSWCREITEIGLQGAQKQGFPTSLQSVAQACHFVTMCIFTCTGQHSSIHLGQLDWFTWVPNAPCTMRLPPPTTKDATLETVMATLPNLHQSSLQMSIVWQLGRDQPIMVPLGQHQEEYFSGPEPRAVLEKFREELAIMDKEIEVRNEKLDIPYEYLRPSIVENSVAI
Assay: biochemical
Format: tissue-based, Reticulocytes
Conditions: reticulocytes

SMILES	IC50
Clc1ccccc1C(c1ccccc1)(c1ccccc1)n1ccnc1 [CLOTRIMAZOLE]	Not Active
CC(C)(C)NCC(O)c1cc(O)cc(O)c1 (stereo unspecified) [TERBUTALINE]	Not Active
CC(CCc1ccccc1)NCC(O)c1ccc(O)c(C(N)=O)c1 (stereo unspecified) [LABETALOL]	Not Active
COc1ccc(CCN2CCC(Nc3nc4ccccc4n3Cc3ccc(F)cc3)CC2)cc1 [ASTEMIZOLE]	Not Active

System: not listed separately
Assay: DRUGMATRIX: beta-Lactamase enzyme inhibition (substrate: Nitrocefin)
Design: species or system Bacillus cereus
Conditions: Not Active = under 50% inhibition at 10 µM

SMILES	IC50	Ki
CC(C)(C)NCC(O)c1cc(O)cc(O)c1 (stereo unspecified) [TERBUTALINE]	Not Active	Not Active
CC(CCc1ccccc1)NCC(O)c1ccc(O)c(C(N)=O)c1 (stereo unspecified) [LABETALOL]	Not Active	Not Active

Target: T4, Alpha-2A adrenergic receptor (Homo sapiens, UniProt P08913); also: in other assays of this panel Not Active means under 50% inhibition at 10 µM
T4 sequence (P08913 whole entry): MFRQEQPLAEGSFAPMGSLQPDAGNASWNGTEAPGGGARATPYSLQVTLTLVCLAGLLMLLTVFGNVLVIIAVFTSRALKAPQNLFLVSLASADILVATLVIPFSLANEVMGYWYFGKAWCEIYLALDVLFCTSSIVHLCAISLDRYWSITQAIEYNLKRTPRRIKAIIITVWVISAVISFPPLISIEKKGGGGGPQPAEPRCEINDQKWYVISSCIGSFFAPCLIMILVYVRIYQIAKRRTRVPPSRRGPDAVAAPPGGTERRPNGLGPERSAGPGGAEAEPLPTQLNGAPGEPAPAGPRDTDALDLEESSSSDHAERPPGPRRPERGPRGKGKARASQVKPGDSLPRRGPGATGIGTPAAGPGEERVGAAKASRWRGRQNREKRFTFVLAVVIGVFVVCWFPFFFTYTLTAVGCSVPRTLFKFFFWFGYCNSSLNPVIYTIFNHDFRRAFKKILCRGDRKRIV
Assay: not given
Format: cell membranes, Sf9, Membrane
Conditions: sf9

SMILES	IC50
CC(C)(C)NCC(O)c1cc(O)cc(O)c1 (stereo unspecified) [TERBUTALINE]	Not Active
CC(CCc1ccccc1)NCC(O)c1ccc(O)c(C(N)=O)c1 (stereo unspecified) [LABETALOL]	Not Active

Target: Aldo-keto reductase family 1 member B1 (Rattus norvegicus, UniProt P07943)
Assay: not given
Format: tissue-based, Lens of camera-type eye
Conditions: not given

SMILES	IC50
Clc1ccccc1C(c1ccccc1)(c1ccccc1)n1ccnc1 [CLOTRIMAZOLE]	Not Active
CC(C)(C)NCC(O)c1cc(O)cc(O)c1 (stereo unspecified) [TERBUTALINE]	Not Active
CC(CCc1ccccc1)NCC(O)c1ccc(O)c(C(N)=O)c1 (stereo unspecified) [LABETALOL]	Not Active
COc1ccc(CCN2CCC(Nc3nc4ccccc4n3Cc3ccc(F)cc3)CC2)cc1 [ASTEMIZOLE]	Not Active

Target: Beta-2 adrenergic receptor (Homo sapiens, UniProt P07550)
Sequence (P07550 whole entry): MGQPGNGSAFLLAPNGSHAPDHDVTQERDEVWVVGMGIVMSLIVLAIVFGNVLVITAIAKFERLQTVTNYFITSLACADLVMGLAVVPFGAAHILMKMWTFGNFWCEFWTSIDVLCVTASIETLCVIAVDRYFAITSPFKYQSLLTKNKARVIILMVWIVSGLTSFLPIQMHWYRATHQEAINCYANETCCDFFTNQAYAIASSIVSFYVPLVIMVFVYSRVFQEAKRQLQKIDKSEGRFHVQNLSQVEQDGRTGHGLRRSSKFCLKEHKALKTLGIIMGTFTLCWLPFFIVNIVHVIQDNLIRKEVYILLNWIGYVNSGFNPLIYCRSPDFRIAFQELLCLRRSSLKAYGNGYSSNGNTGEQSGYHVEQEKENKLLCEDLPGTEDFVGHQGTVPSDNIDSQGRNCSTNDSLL
Assay: DRUGMATRIX: Adrenergic beta2 radioligand binding (ligand: [3H] CGP-12177)
Format: cell membranes, Membrane
Conditions: cho; Not Active = under 50% inhibition at 10 µM

SMILES	IC50
COc1ccc(CCN2CCC(Nc3nc4ccccc4n3Cc3ccc(F)cc3)CC2)cc1 [ASTEMIZOLE]	Not Active
